Results reported in US20140086890A1, “COMPOSITIONS AND METHODS FOR TREATING HYPERPROLIFERATIVE DISORDERS” (priority 2004, published 2014).

What was measured:
neoplastic cells = conditions: by reducing levels of c-FLIP; cited from earlier work
MHC class I = MHC class I expression by flow cytometry; type: cell-based, human and murine; conditions: Depsipeptide 25 ng/ml or Velcade 10 nM, 6-40 hours
Protocol: (§1) Level of apoptosis was evaluated by Annexin-V and 7-AAD staining (upper left chart). Expression of MHC class I was evaluated by flow cytometry by HLA-ABC for human RCC and H-2Dd/Kd for murine RCC (lower left chart). […] Cells were labeled with ^3H thymidine for analysis of proliferation (upper right chart).

[1] = while retaining graft-versus-tumor effects; cited from earlier work
RENCA tumor cells = test: NK cell susceptibility assay of pre-sensitized RENCA tumor cells; type: cell-based, murine; conditions: for NK cell susceptibility of RENCA (FIG. 8): 14 hours, 10 nM Velcade or 25 ng/ml Depsipeptide, autologous Balb/c NK cells, 4 hour assay; for susceptibility of RENCA tumor cells to NK cell mediated lysis (FIG. 7): pretreated 40 hours, Depsipeptide 25 ng/ml or Velcade 10 nM, NK cells from B10.d2 mouse
Protocol: (§2) Thereafter, the tumor cells were tested for NK cell susceptibility in a standard cytotoxicity assay. NK cells were purified from splenocytes from a B 10.d2 mouse by negative magnetic bead depletion of T cells, B cells, monocytes and granulocytes. NK cell purity was evaluated by DX5 and CD3 staining by flow cytometry. Purity of NK cells was always between 90-100%.
Cells were thereafter labeled with ^51Cr for 1 hour and tested for susceptibility to NK cell mediated lysis in a standard 4 hour assay. Murine autologous Balb/c NK cells tested against untreated (squares), Velcade (circles) or Depsipeptide (triangles) treated RENCA cell lines (Balb/c in origin).

human and murine RCC = test: 3H thymidine proliferation; type: cell-based; conditions: various concentrations, 72 hours
Protocol: as §1

[2] = tested on: RCC cell lines (JOHW, SAUJ, STAR, RENCA); test: apoptosis by Annexin-V and 7-AAD staining; type: cell-based, human and murine; conditions: Depsipeptide 25 ng/ml or Velcade 10 nM, 6-40 hours
Protocol: as §1

[3] = tested on: human renal cell carcinoma (RCC) cell lines JOHW, SAUJ, STAR; test: NK cell susceptibility assay of pre-sensitized human RCC cell lines; type: cell-based; conditions: for autologous NK cell susceptibility of human RCC SAUJ or STAR (FIG. 11): 24 hours, 25 ng/ml Depsipeptide or 10 nM Velcade; for allogeneic NK cell susceptibility of human RCC (FIG. 9) / autologous NK cell susceptibility of human RCC (FIG. 10): JOHW, 10 nM Velcade or 25 ng/ml Depsipeptide, 40 hours, 4 hour assay
Protocol: Cells were thereafter labeled with ^51Cr for 1 hour and tested for susceptibility to allogeneic NK cell mediated lysis in a standard 4 hour assay.
Cells were thereafter labeled with ^51Cr for 1 hour and tested for susceptibility to autologous NK cell mediated lysis in a standard 4 hour assay.
as §2, with “assay. Autologous” for “assay.”, “peripheral blood” for “splenocytes from a B 10.d2 mouse”, “CD56” for “DX5”

HDAC = conditions: cited from earlier work
[4] = tested on: human RCC cell lines (JOHW, PORJC, SAUJ and STAR); type: cell-based
Protocol: (§3) Cells were then plated in a 96-well plate at 4,000 cell/well. Recombinant TRAIL [75-300 ng/ml] or recombinant Fas-ligand [12.5-100 ng/ml] was added to the cells and supernatant was harvested after 16 hours incubation. The level of lysis by TRAIL and Fas-ligand were calculated based on spontaneous and maximum ^51Cr release.

[5] = tested on: human RCC cell lines (JOHW, PORJC, SAUJ and STAR); type: cell-based; remark: listed apart in the source
Protocol: as §3

MIC-A/B [6] = conditions: cited from earlier work
MIC-A/B [7] = test: MIC-A/B expression by flow cytometry; type: cell-based, human; conditions: Depsipeptide 25 ng/ml or Velcade 10 nM, 6-40 hours
tumors = conditions: mouse, in vivo; cited from earlier work

| SMILES | sensitization of neoplastic cells to TRAIL-mediated apoptosis (neoplastic cells) | MHC Class I expression of RCC cell lines (FIG. 15) (MHC class I) | acute graft-versus-host disease [1] | NK cell susceptibility of RENCA (FIG. 8) (RENCA tumor cells) | susceptibility of RENCA tumor cells to NK cell mediated lysis (FIG. 7) (RENCA tumor cells) | proliferation of RCC cell lines (FIG. 15) (human and murine RCC) | viability (apoptosis) of RCC cell lines (FIG. 15) [2] | autologous NK cell susceptibility of human RCC SAUJ or STAR (FIG. 11) [3] | allogeneic NK cell susceptibility of human RCC (FIG. 9) [3] | autologous NK cell susceptibility of human RCC (FIG. 10) [3] | concentrations at which HDAC activity is inhibited (HDAC) | cell lysis of presensitized RCC cells by Fas ligand (FIG. 14) [4] | cell lysis of presensitized RCC cells by TRAIL (FIG. 13) [5] | MIC-A/B upon treatment (MIC-A/B [6]) | MIC-A/B expression of human RCC (FIG. 15) (MIC-A/B [7]) | anti-tumor effects: cell growth and formation of tumors in mice models (tumors) |
| --- | --- | --- | --- | --- | --- | --- | --- | --- | --- | --- | --- | --- | --- | --- | --- | --- |
| CC(C)C[C@H](NC(=O)[C@H](Cc1ccccc1)NC(=O)c1cnccn1)B(O)O [PS-341] | sensitizes | – | – | – | – | – | – | – | – | – | – | – | – | – | – | – |
| CC(C)C[C@H](NC(=O)[C@H](Cc1ccccc1)NC(=O)c1cnccn1)B(O)O [Velcade] | – | no differences | inhibits | enhanced NK cell susceptibility | more susceptible | no differences | no differences | enhanced autologous NK cell susceptibility | enhanced allogeneic NK cell susceptibility | enhanced autologous NK cell susceptibility | – | – | – | – | – | – |
| C/C=C1\NC(=O)[C@H]2CSSCC/C=C/[C@H](CC(=O)N[C@H](C(C)C)C(=O)N2)OC(=O)[C@H](C(C)C)NC1=O [FR901228] | – | – | – | – | – | – | – | – | – | – | micromolar concentrations | – | – | – | – | – |
| C/C=C1\NC(=O)[C@H]2CSSCC/C=C/[C@H](CC(=O)N[C@H](C(C)C)C(=O)N2)OC(=O)[C@H](C(C)C)NC1=O [Depsipeptide] | – | no differences | – | enhanced NK cell susceptibility | more susceptible | no differences | no differences | enhanced autologous NK cell susceptibility | enhanced allogeneic NK cell susceptibility | enhanced autologous NK cell susceptibility | – | Increased cell lysis | Increased cell lysis | induction | no differences | anti-tumor effects |
